Measurements reported in patent US5132299A, “11β-phenyl-4,9,15-estratrienes, their manufacture and pharmaceutical preparations containing same” (Schering Aktiengesellschaft, priority 1987, dated 1992).

Tests used:
[1] = system: pregnant rats; experiment: Abortive test with pregnant rats (antigestagenic effect); type: in vivo, rat; settings: for Abortion Rate n aborting/n treated rats: d5-d7 p.c., autopsy d9 p.c.; for abortive effect in words: dose of 0.3 mg, pregnant rats s.c.; for factor by which more effective than RU 486 (C) in the abortive test: pregnant rats, s.c.
Protocol: The abortifacient activity was determined to define the antigestagenic effect. The tests were carried out on female rats with a weight of approx. 200 g. […] The date on which sperm are detected was considered the 1st day of pregnancy (=dl p.c.). The animals were treated with the substance to be tested or the solvent after nidation of the blastocysts from d5 p.c. to d7 p.c. The animals were killed on d9 p.c. and the uteri were checked for implants and points of resorption. Photos were made of all uteri. Lack of implants was considered as abortions. The test substances were dissolved in a mixture of benzylbenzoate and castor oil (ratio of 1:4). The vehicle volume per individual dose amounted to 0.2 ml. Treatment was subcutaneous (s.c.).

[2] = system: guinea pigs; experiment: Abortive effect in guinea pigs; type: in vivo, guinea pig
Protocol: The abortive effect of the substances in accordance with the invention (A) and (B) was also determined using guinea pigs as test animals.
The test results gained from guinea pigs permit more reliable predictions to be made on the abortive activity of the tested compound(s) to be expected in the case of humans than is permitted by the data gained with rats.

[3] = system: tyrosine amino-transferase (TAT) in RHC (Rat Hepatoma Cells); experiment: Antiglucocorticoid activity: tyrosine amino-transferase (TAT) induction in RHC cultures; type: cell-based; settings: for antiglucocorticoid activity as % of the activity of the standard compound RU 486 (C): TAT test in RHC, simultaneous treatment with corticoid; for EC (max): Rattus norvegicus, read-out: concentration of max. TAT activity (induction)
Protocol: To identify the antiglucocorticoid activity, the effect of the substances in accordance with the invention on the tyrosine amino-transferase was determined. The test system is based on measurement of the activity of the liver enzyme tyrosine amino-transferase (TAT) in cultures of RHC (Rat Hepatoma Cells). The enzyme catalyzes the first step in the metabolism of tyrosine and can be induced by glucocorticoids both in the liver and in hepatoma cells. The activity is easy to measure in raw extracts (Granner and Tomkins, (1970) Meth. Enzymol. 15, 633). The enzyme converts the amino group of tyrosine to 2-oxoglutaric acid. Glutaminic acid and p-hydroxy-phenylpyruvate are formed. […] Its measured absorption lies at 331 nm. […] The activity can be stimulated by a factor of 4 to 6 above basal value. Simultaneous treatment with corticoid and antiglucocorticoid leads to a decrease in the TAT activity.

[4] = target: T1, gestagen receptor (Oryctolagus cuniculus, UniProt P06186); experiment: Gestagen receptor binding test (3H-progesterone displacement, rabbit uterus cytosol)
T1 sequence (P06186 1-930): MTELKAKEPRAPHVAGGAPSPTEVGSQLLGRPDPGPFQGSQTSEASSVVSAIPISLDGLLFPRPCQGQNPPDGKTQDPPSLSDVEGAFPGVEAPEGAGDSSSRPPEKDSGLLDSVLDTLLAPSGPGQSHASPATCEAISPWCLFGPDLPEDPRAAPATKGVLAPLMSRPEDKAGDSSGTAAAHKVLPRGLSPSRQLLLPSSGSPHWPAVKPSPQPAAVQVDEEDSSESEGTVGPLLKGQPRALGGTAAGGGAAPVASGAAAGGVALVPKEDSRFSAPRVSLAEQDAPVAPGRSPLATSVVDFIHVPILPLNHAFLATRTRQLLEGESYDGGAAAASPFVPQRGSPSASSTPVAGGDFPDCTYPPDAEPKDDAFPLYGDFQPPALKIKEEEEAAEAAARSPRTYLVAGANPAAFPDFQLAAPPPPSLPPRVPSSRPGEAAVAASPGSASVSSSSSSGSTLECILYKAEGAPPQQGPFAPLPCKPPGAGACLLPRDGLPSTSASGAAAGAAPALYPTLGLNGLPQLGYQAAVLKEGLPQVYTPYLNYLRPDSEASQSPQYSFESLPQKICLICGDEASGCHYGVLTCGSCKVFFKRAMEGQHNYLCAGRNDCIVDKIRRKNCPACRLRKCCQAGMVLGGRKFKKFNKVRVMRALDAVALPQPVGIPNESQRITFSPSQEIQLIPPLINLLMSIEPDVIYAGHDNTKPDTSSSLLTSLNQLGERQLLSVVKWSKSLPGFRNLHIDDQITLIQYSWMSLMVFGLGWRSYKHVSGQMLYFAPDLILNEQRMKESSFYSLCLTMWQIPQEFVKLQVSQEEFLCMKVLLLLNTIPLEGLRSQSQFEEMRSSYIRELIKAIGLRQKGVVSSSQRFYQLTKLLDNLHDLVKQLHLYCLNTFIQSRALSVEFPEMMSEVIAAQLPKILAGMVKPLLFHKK
Protocol: The affinity of the compounds in accordance with the invention to the gestagen receptor is examined with the gestagen receptor binding test. In this test the displacement of the agonist by the antagonist is measured. Cytosol from rabbit uterus homogenate which contains the receptor molecule (a protein) is used in the test. This binds progesterone with high affinity and low capacity. When these receptors are charged with ^3 H-progesterone in the presence of the unlabeled substance to be tested, the extent to which the ^3 H-progesterone is displaced from the receptor depends on the concentration and binding affinity of the compound to be tested. After separation of the receptor-bound progesterone from the non-bound progesterone, the binding can be determined as a percentage and this value plotted against the log of the molar concentration of the test substance. Characteristic dosage-dependent displacement curves are obtained and the concentration of the test substance can be determined which is required to oust the reference substance […] from the receptor.

| SMILES | Abortion Rate n aborting/n treated rats ([1]; 0.3 mg/animal/day s.c.) | Abortion Rate n aborting/n treated rats ([1]; 1.0 mg/animal/day s.c.) | Abortion Rate n aborting/n treated rats ([1]; 3.0 mg/animal/day s.c.) | abortive effect in words [1] | factor by which more effective than RU 486 (C) in the abortive test [1] | abortifacient effect compared with compound (D) [2] | antiglucocorticoid activity as % of the activity of the standard compound RU 486 (C) [3] | strength in the gestagen receptor binding test compared with standard compound (C) [4] | EC (max) [3] [µM] |
| --- | --- | --- | --- | --- | --- | --- | --- | --- | --- |
| CC#C[C@]1(O)C=C[C@H]2[C@@H]3CCC4=CC(=O)CCC4=C3[C@@H](c3ccc(C(C)=O)cc3)C[C@@]21C [A, 11β-(4-acetylphenyl)-17β-hydroxy-17α-(prop-1-inyl)-4,9,15-estratrien-3-one] | 4/4 | 4/4 | 4/4 | fully abortive | 10 | strikingly higher abortifacient effect | 20-50% | much stronger |  |
| C#CC[C@]1(O)C=C[C@H]2[C@@H]3CCC4=CC(=O)CCC4=C3[C@@H](c3ccc(C(C)=O)cc3)C[C@@]21C [B, 11β-(4-acetylphenyl)-17β-hydroxy-17α-(prop-2-inyl)-4,9,15-estratrien-3-one] | 4/4 | 4/4 | 4/4 | fully abortive | 10 | strikingly higher abortifacient effect | less than 1% | about the same strength |  |
| C[C@@H]1C[C@H]2[C@@H]3CCC4=CC(=O)C=C[C@]4(C)[C@@]3(F)[C@@H](O)C[C@]2(C)[C@@]1(O)C(=O)CO [dexamethasone, reference compound] |  |  |  |  |  |  |  |  | 0.1 |
| CC#C[C@]1(O)CC[C@H]2[C@@H]3CCC4=CC(=O)CCC4=C3[C@@H](c3ccc(C(C)=O)cc3)C[C@@]21C [D, 11β-(4-acetylphenyl)-17β-hydroxy-17α-(prop-1-inyl)-4,9-estradien-3-one, reference compound] | 4/4 | 4/4 | 4/4 |  |  |  |  |  |  |
| C[C@]12CCC(=O)C=C1CC[C@@H]1[C@@H]2[C@@H](O)C[C@@]2(C)[C@H]1CC[C@]2(O)C(=O)CO [cortisol, reference compound] |  |  |  |  |  |  |  |  | 1 |
| CC#C[C@]1(O)CC[C@H]2[C@@H]3CCC4=CC(=O)CCC4=C3[C@@H](c3ccc(N(C)C)cc3)C[C@@]21C [C, 11β-(4-dimethylaminophenyl)-17β-hydroxy-17α-(prop-1-inyl)-4,9,(10)-estradien-3-one, reference compound] | 0/4 | 2/4 | 4/4 |  |  |  |  |  |  |
